Measurements taken from article PMC10674403, “Imperatorin Restores Chemosensitivity of Multidrug-Resistant Cancer Cells by Antagonizing ABCG2-Mediated Drug Transport” (Pharmaceuticals, 2023).

Experiments:
ABCG2 [1] = target: T1, ABCG2 (Homo sapiens, UniProt Q9UNQ0); assay: Vanadate-sensitive ATPase stimulation in ABCG2 membrane vesicles (Pi release); also inhibition of PhA efflux in ABCG2-transfected HEK293 cells; type: biochemical; set-up: membrane vesicles derived from ABCG2 baculovirus-infected High Five insect cells
T1 sequence (Q9UNQ0 1-655): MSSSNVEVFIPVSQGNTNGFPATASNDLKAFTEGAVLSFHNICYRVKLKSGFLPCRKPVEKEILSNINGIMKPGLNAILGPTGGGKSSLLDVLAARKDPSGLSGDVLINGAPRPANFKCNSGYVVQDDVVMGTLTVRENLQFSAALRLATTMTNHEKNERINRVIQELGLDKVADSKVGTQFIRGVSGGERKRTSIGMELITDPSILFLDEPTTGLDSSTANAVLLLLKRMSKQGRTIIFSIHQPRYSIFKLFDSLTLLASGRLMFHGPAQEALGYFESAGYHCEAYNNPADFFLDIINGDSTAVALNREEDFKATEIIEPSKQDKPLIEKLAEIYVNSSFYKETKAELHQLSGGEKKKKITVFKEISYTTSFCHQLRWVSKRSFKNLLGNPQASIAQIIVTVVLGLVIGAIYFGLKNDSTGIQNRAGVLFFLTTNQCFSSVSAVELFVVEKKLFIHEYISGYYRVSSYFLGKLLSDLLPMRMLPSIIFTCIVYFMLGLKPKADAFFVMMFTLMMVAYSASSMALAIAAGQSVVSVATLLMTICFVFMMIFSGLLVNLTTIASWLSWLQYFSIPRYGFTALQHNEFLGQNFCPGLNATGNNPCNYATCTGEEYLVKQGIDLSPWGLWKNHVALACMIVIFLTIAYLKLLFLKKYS

ABCG2 [2] = target: T1, ABCG2; assay: Fluorescent substrate accumulation/efflux by flow cytometry in ABCG2-expressing versus parental cells; type: cell-based; set-up: human ABCG2-transfected R482-HEK293 cells; S1-MI-80 and H460-MX20 cells

| SMILES | EC50 (ABCG2 [1]) [nM] | Fluorescent substrate accumulation/efflux by flow cytometry in ABCG2-expressing (ABCG2 [2]) |
| --- | --- | --- |
| CC(C)=CCOc1c2occc2cc2ccc(=O)oc12 [IMP, Imperatorin] | ~170 | – |
| C=Cc1c(C)c2cc3nc(c4c5[nH]c(cc6nc(cc1[nH]2)C(C)=C6CC)c(C)c5C(=O)[C@@H]4C(=O)OC)[C@@H](CCC(=O)O)[C@@H]3C [PhA, pheophorbide A] | – | ABCG2-mediated efflux of an ABCG2-specific fluorescent substrate PhA |
